For series [1], the target named is human thrombin (Homo sapiens, UniProt P00734). The experiment in a line: Thrombin inhibition assay (selectivity against thrombin). Format: biochemical. Particulars: for Selectivity (thrombin/FXa): ratio of Ki values; for Ki: read-out: Inhibition ability against thrombin Ki. The method, then:
The FXa inhibiting selectivity of the compound according to the present invention to thrombin is measured as follows. The inhibition effect of the compound of formula 1 to thrombin is measured in Ki value by practicing the same method as the above measuring method of FXa inhibiting activity, and the rate of thrombin/FXa is obtained. At this time, the experimental method of thrombin is the same as that of FXa, except that Chromozyme TH (Tosyl-Gly-Pro-Arg-nitroanilide acetate) is used as the substrate.
Inhibiting ability of a compound according to the present invention against thrombin activity was measured as follows.
In 1.5 mL cuvette, 0.1M tris buffer solution (pH 7.8) comprising 150 mM NaCl, and 0.1% PEG 8000 (molecular weight 8000) was placed by 1160 uL. Chromozyme X was dissolved in dimethylsulfoxide (DMSO) to be 0.1 mM, and diluted with the above buffer solution to be 0.1 mM to prepare the substrate solution. 225 uL of 0.1 mM substrate solution as prepared above was added to cuvette. The compound of the present invention was dissolved in DMSO to be 10 mM, and diluted with the above buffer solution to be 0.1 mM, 0.01 mM and 0.001 mM, respectively, to prepare an inhibitor solution. The inhibitor solution was taken in an amount from 0 to 20 uL, and supplemented with tris buffer solution up to 20 uL of total volume of the solution to add to the cuvette.
15 uL of human thrombin, which was dissolved in the above tris buffer solution to be 0.1 mg/mL, was added to the cuvette having the reaction solution at room temperature to begin enzyme hydrolysis. The amount of para-nitroanilide produced for 2 minutes after adding enzyme was monitored about variation of absorbency at 381 nm to depict continuous spectrum of reaction time to absorbency. The above experiment was repeated for various concentrations of inhibitor to obtain consecutive spectrum.
The initial velocity Vi was calculated from gradient within 30 sec of the reaction time in each spectrum. A graph was depicted for a reciprocal of the initial velocity to inhibitor concentration (1/Vi). A linear equation corresponding to points on the graph was obtained. Thereafter, Ki may be calculated by using enzyme reaction equation from x intercept.

The target of series [2] is T1, trypsin (UniProt P00760).
T1 construct: other: A1: cyclopropyl scaffold; other: A2: pyrrole scaffold; other: A3: bicyclic scaffold; other: A4: cyanophenylalanine scaffold
T1 sequence (P00760 1-246): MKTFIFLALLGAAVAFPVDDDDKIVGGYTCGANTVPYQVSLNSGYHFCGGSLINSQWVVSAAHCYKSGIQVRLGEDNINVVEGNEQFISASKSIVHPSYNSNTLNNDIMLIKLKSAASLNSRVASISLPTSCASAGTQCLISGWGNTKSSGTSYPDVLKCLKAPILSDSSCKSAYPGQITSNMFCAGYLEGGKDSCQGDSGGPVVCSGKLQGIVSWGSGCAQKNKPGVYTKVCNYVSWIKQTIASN
The experiment in a line: Trypsin inhibition assay (selectivity against trypsin). Format: biochemical. Particulars: read-out: Inhibition ability against trypsin Ki. The method, then: (§1) The FXa inhibition selectivity of the compound according to the present invention to trypsin is measured as follows. The inhibition effect of the compound of formula 1 to trypsin is measured in Ki value by practicing the same method as the above measuring method of FXa inhibiting activity, and the rate of trypsin/FXa is obtained. At this time, the experimental method of thrombin is the same as that of FXa, except that N-benzoyl-Val-Gly-Arg-p-nitroanilide hydrochloride is used as the substrate.
(§2) Inhibition activity of a compound according to the present invention was measured by performing the experiment as explained above concerning FXa.
(§3) 20 uM solution of N-benzoyl-Val-Gly-Arg-p-nitroanilide hydrochloride was used as a substrate. An inhibitor solution with various concentrations in the range of 0 to 120 uM was used. Trypsin was dissolved in 0.1N HCl, and supplemented with the above tris buffer solution to be 45 ug/mL. Thereafter, 40 uL of the trypsin solution was used. The remaining procedure and the used amounts of materials (for example, […] of total volume of the reaction solution) and the like were the same as those of the experiment for thrombin. Also, Km was decided in the same method as used in Ki calculation.

Series [3] relates to trypsin. The series is described as above. Format: biochemical. As to conditions: ratio of Ki values. The method, then:
as §1, §2, §3

The conditions of series [4]: background art; cited from earlier work.
Series [5] concerns the target FXa (Homo sapiens, UniProt P00742). As to conditions: background art; cited from earlier work.
The mark [6] stands for this setting: A4: cyanophenylalanine scaffold.

Where a name gives a salt, the structure may show the parent alone. Read-outs that look alike come from different tables or passages of the source.

Sequence of FXa (P00742 235-488 limits assumed): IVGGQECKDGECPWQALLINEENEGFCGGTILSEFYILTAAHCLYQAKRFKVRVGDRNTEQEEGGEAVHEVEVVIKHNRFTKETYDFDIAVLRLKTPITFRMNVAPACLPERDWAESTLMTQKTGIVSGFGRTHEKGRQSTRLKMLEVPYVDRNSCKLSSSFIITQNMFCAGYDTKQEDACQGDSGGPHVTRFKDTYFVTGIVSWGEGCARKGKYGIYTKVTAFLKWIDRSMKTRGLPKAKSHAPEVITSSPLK
Sequence of FXa (P00742 41-179 limits assumed): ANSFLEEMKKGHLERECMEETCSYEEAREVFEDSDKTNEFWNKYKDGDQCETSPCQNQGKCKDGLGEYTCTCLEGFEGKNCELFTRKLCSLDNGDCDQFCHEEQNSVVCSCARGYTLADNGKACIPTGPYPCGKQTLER

Consider “4-(2-cyanophenyl)-phenyl N-carboxymethyl)-3-(3-aminoiminomethylphenyl)alanine amide trifluoroacetic acid salt [Compound No. A4-10]”, for which, in series [1] (setting [6]), the “Selectivity (thrombin/FXa)” value is on record as 14 and the Ki came out at 1700 nM.

`CCOC(=O)c1cn(Cc2ccccc2)cc1Cc1ccc(C(=N)N)cc1.O=C(O)C(F)(F)F` [Compound No. A2-1, Ethyl 4-(4-aminoiminomethylbenzyl)-benzyl-pyrrole-3-carboxylate trifluoroacetic acid salt]: in series [1] (A2: pyrrole scaffold), the “Selectivity (thrombin/FXa)” value worked out at 0.1.

For the compound “4-(4-Aminoiminomethylbenzyl)-1-(3-aminoiminomethylhydroxy-benzyl)-pyrrole-3-carboxylic acid bis trifluoroacetic acid salt [Compound No. A2-30]”, the “Selectivity (thrombin/FXa)” value in series [1] (A2: pyrrole scaffold) is recorded as 190.

Regarding `C[n+]1cccc(-c2ccc(NC(=O)C3=C(c4cccc(C(=N)N)c4)CCC3)cc2)c1.O=C([O-])C(F)(F)F` [Compound No. A3-26, 4-(N-methylpyridinium-3-yl)-phenyl 2-(3-aminoiminomethylphenyl)-cyclopenetene-1-carboxamide trifluoroacetic acid salt], the Ki in series [2] (A3: bicyclic scaffold) stood at 210 nM. For the same compound, the “Selectivity (trypsin/FXa)” value in series [3] (A3: bicyclic scaffold) is reported as 10. Further, in series [1] (A3: bicyclic scaffold), the “Selectivity (thrombin/FXa)” value was 670.

`CC(=N)N1CC[C@H](Oc2ccc(C(Cc3ccc4ccc(C(=N)N)cc4c3)C(=O)O)cc2)C1` (some centres unmarked) [DX9065a]: in series [4], the oral absorption entry was “capable of being absorbed orally”.

`CN1CCN=C1c1cccc(Oc2nc(Oc3cc(C(=N)N)ccc3O)c(F)c(N(C)CC(=O)O)c2F)c1` [ZK-80719]: the oral absorption entry in series [4] is given as “capable of being absorbed orally”.

As to `N=C(N)c1ccc(O)c(CN2CC[C@H](NS(=O)(=O)c3ccc(-c4cccnc4)s3)C2=O)c1` [RPR-130737], in series [5], the “effect as a Fxa inhibitor” value is “excellent effect as a Fxa inhibitor”; the “selectivity against thrombin, trypsin and the like enzymes” value was “excellent selectivity against thrombin, trypsin and the like enzymes”.

As for `Cc1ccc(S(N)(=O)=O)c(-c2ccc(NC(=O)[C@@H]3C[C@@H]3c3cccc(C(=N)N)c3)cc2)c1.O=C(O)C(F)(F)F` (relative stereo) [Compound No. A1-4, 4-(2-aminosulfonyl-5-methyl-phenyl)-phenyl cis-2-(3-aminoiminomethylphenyl)-cyclopropane-1-carboxamide mono trfluoroacetic acid salt], in series [1] (A1: cyclopropyl scaffold), the “Selectivity (thrombin/FXa)” value is 127 and the Ki worked out at 380 nM.

`N=C(N)c1cccc(-c2ccccc2NS(=O)(=O)Cc2ccccc2)c1.O=C(O)C(F)(F)F` [Compound No. A3-21]: the “Selectivity (thrombin/FXa)” value in series [1] (A3: bicyclic scaffold) was 0.73.

As for `CCOC(=O)c1cn(Cc2ccc(C(=N)N)cc2)cc1Cc1ccc(C(=N)N)cc1.O=C(O)C(F)(F)F.O=C(O)C(F)(F)F` [Compound No. A2-42], the “Selectivity (thrombin/FXa)” value in series [1] (A2: pyrrole scaffold) was 4.7.

As for `CCOC(=O)c1cn(Cc2cccc(C(=N)N)c2)cc1-c1ccc(-c2ccccc2)cc1.O=C(O)C(F)(F)F` [Compound No. A2-52, Ethyl 4-(4-biphenyl)-1-(3-aminoiminomethylbenzyl)-pyrrole-3-carboxylate trifluoroacetic acid salt], in series [1] (A2: pyrrole scaffold), the “Selectivity (thrombin/FXa)” value is given as 2.6.

As to `CCOC(=O)c1cn(Cc2ccc(-c3ccccc3)cc2)cc1Cc1cccc(C(=N)N)c1.O=C(O)C(F)(F)F` [Compound No. A2-19, Ethyl 4-(3-aminoiminomethylbenzyl)-1-(4-biphenylmethyl)-pyrrole-3-carboxylate trifluoroacetic acid salt], in series [1] (A2: pyrrole scaffold), the “Selectivity (thrombin/FXa)” value is 0.4.

For `N=C(N)c1ccc(-c2ccccc2NC(=O)Nc2cccc(C(=N)N)c2)cc1.O=C(O)C(F)(F)F.O=C(O)C(F)(F)F` [Compound No. A3-8], the “Selectivity (thrombin/FXa)” value in series [1] (A3: bicyclic scaffold) is listed as 1.6.

As for `N=C(N)c1ccc(NC(=O)Nc2ccccc2-c2ccc(C(=N)N)cc2)cc1.O=C(O)C(F)(F)F.O=C(O)C(F)(F)F` [Compound No. A3-9], in series [1] (A3: bicyclic scaffold), the “Selectivity (thrombin/FXa)” value was determined as 0.04.

Consider `Cc1ccc(S(N)(=O)=O)c(-c2ccc(NC(=O)[C@@H]3C[C@H]3c3cccc(C(=N)N)c3)cc2)c1.O=C(O)C(F)(F)F` (relative stereo) [Compound No. A1-3, 4-(2-aminosulfonyl-5-methyl-phenyl)-phenyl trans 2-(3-aminoiminomethylphenyl-cyclopropane-1-carboxamidemonotrifluoroacetic acid salt], for which the inhibition constant (Ki) is 120 nM in series [2] (A1: cyclopropyl scaffold) and 520 nM in series [1] (A1: cyclopropyl scaffold).

For the compound `CCOC(=O)c1cn(Cc2cccc(C(=N)N)c2)cc1-c1cccc(-c2ccccc2)c1.O=C(O)C(F)(F)F` [Compound No. A2-51, Ethyl 4-(3-biphenyl)-1-(3-aminoiminomethylbenzyl)-pyrrole-3-carboxylate trifluoroacetic acid salt], the “Selectivity (thrombin/FXa)” value in series [1] (A2: pyrrole scaffold) was 0.08.

On to “Ethyl 4-(3-aminoiminomethylbenzyl)-1-aminoiminomethylbenzyl)-pyrrole-3-carboxylate bis trifluoroacetic acid salt [Compound No. A2-37]”, for which the “Selectivity (thrombin/FXa)” value in series [1] (A2: pyrrole scaffold) stood at 7.0.

Regarding `CC(C)c1nc2c(C(=O)O)cc(NC3CCN(C(=N)N)CC3)cc2n1Cc1ccc2ccc(C(=N)N)cc2c1` [ZK-807369], the oral absorption result in series [4] is “capable of being absorbed orally”.

For `N=C(N)c1ccc(NC(=O)Nc2ccccc2-c2cccc(C(=N)N)c2)cc1.O=C(O)C(F)(F)F.O=C(O)C(F)(F)F` [Compound No. A3-10], in series [1] (A3: bicyclic scaffold), the “Selectivity (thrombin/FXa)” value was 0.82.

Consider `N=C(N)c1cccc(NC(=O)Nc2ccccc2-c2cccc(C(=N)N)c2)c1.O=C(O)C(F)(F)F.O=C(O)C(F)(F)F` [Compound No. A3-11], for which the “Selectivity (thrombin/FXa)” value in series [1] (A3: bicyclic scaffold) stood at 6.4.

On to `N=C(N)c1cccc(C2=NOC(Cc3nn[nH]n3)(C(=O)Nc3ccc(-c4ccccc4S(N)(=O)=O)cc3)C2)c1` (centres unmarked) [SK-549], for which, in series [5], the “effect as a Fxa inhibitor” value was “excellent effect as a Fxa inhibitor”; the “selectivity against thrombin, trypsin and the like enzymes” value was “excellent selectivity against thrombin, trypsin and the like enzymes”.

As for `N=C(N)c1ccc(Cn2cc(Cc3cccc(C(=N)N)c3)c(C(=O)N3CCOCC3)c2)cc1` [Compound No. A2-40, 4-(3-Aminoiminomethylbenzyl)-1-(4-aminoiminomethylbenzyl)-pyrrole-3-carboxylic acid morphorline amide bis trifluoroacetic acid salt], the “Selectivity (thrombin/FXa)” value in series [1] (A2: pyrrole scaffold) stood at 14.

Turning to `CC(=N)N1CCC(Oc2ccc(N(Cc3ccc4ccc(C(=N)N)cc4c3)S(=O)(=O)CC(=O)O)cc2)CC1` [YM-60828], the oral absorption result in series [4] is recorded as “capable of being absorbed orally”.

As for `Cc1ccc(S(N)(=O)=O)c(-c2ccc(NC(=O)[C@@H]3C[C@H]3c3cccc(C(=N)N)c3)cc2)c1.O=C(O)C(F)(F)F` (relative stereo) [Compound No. A1-3], the “Selectivity (trypsin/FXa)” value in series [3] (A1: cyclopropyl scaffold) is 0.94. Besides, the “Selectivity (thrombin/FXa)” value in series [1] (A1: cyclopropyl scaffold) came out at 5.

In general, Ki refers to a dissociation constant, usually derived from enzyme kinetics or from competition with a known ligand.

The values above are taken from patent US20030065176A1, “Factor xa inhibitors with aryl-amidines and derivatives, and prodrugs thereof” (priority 2000, published 2003).
